{"source": "patent US20130266557A1", "about": "“METHODS FOR TREATMENT OF A SARCOMA USING AN EPIMETABOLIC SHIFTER (COENZYME Q10)” (priority 2009, published 2013)", "system": "NCIES0808 cells", "test": "Two-dimensional gel analysis with MS identification", "type": "cell-based, human", "details": "− = down, 1 = no change; for Spot 154, Translin-associated factor X: modulation vs control media / Spot 240, Proteasome 26S subunit 13; Endophilin B1: modulation vs control media / Spot 284, Proteasome 26S subunit: modulation vs control media / Spot 583, hnRNP C1/C2: modulation vs control media / Spot 612, Myosin Regulatory Light Chain: modulation vs control media / Spot 667, Dismutase Cu/Zn Superoxide: modulation vs control media / Spot 685, hnRNP C1/C2: modulation vs control media / Spot 746, Actin-like 6A; Eukaryotic Initiation Factor 4All: modulation vs control media / Spot 938, Nuclear Chloride Channel protein: modulation vs control media / Spot 940, Ubiquilin 1; Phosphatase 2A: modulation vs control media: 3 hours; for Spot 452, acid phosphatase 1: modulation vs control media / Spot 477, diazepam binding inhibitor: modulation vs control media / Spot 530, ribosomal protein SA: modulation vs control media / Spot 652, proteasome beta 3: modulation vs control media / Spot 720, dCTP pyrophosphatase 1: modulation vs control media / Spot 773, proteasome beta 4: modulation vs control media / Spot 1057, Arsenite translocating ATPase; Spermine synthetase: modulation vs control media: 6 hours", "experimental": "NCIES0808 cells were plated in T25 flasks in experimental conditions similar to those described in the PCR array section. At the end of the treatment time, cells were trypsinized as described in the PCR array section and washed twice in ice cold TBS and snap frozen in liquid nitrogen. Further processing for Western blots was carried out at UMass.\nBefore isoelectric focusing (IEF), samples were solubilized in 40 mM Tris, 7 M urea, 2 M thiourea, and 1% C7 zwitterionic detergent, reduced with tributylphosphine, and alkylated with 10 mM acrylamide for 90 min at room temperature. After the sample was run through a 10-kDa cutoff Amicon Ultra device with at least 3 volumes of the resuspension buffer, consisting of 7 M urea, 2 M thiourea, and 2% CHAPS to reduce the conductivity of the sample. One hundred micrograms of protein were subjected to IEF on 11-cm pH 3 to 10, pH 4 to 7 or pH 6 to 11 immobilized pH gradient strips (GE, Amersham, USA) to 100,000 volts hour. After IEF, immobilized pH gradient strips were equilibrated in 6 M urea, 2% SDS, 50 mM Tris-acetate buffer, pH 7.0, and 0.01% bromphenol blue and subjected to SDS-polyacrylamide gel electrophoresis on 8 to 16% Tris-HCl Precast Gel, 1 mm (Bio-Rad, USA). The gels were run in duplicate. They were fixed, stained in SYPRO Ruby, 80 mL/gel (Invitrogen, USA) and imaged on Fuji FLA-5100 laser scanner.\nAnalysis of all gel images was performed using Progenesis Discovery and Pro (Nonlinear Dynamics Inc., Newcastle upon Tyne, UK). After spot detection, matching, background subtraction, normalization, and filtering, data for SYPRO Ruby gel images was exported. […] Manual annotation of each statistically significant spots was performed to assure accurate detection.\nTryptic peptides extracted from respective gel plugs were dried down to a 10 ul volume and acidified with 1-2 ul of 1% TFA. Samples were loaded on an uC18 Zip Tip (Millipore, Corp) after pre-equilibration in 0.1% TFA. After washing with 2×10 ul aliquots of 0.1% TFA, samples were deposited directly onto the MALDI sample target using 1 ul of Matrix solution 15 mg/ml of 2,5 Dihydroxybenzoic Acid (MassPrep DHB, Waters Corp.) in 50:50 Acetonitrile: 0.1% TFA. Samples were allowed to air dry prior to insertion into the mass spectrometer. Analysis were performed on a Kratos Axima QIT (Shimadzu Instruments) matrix-assisted-laser desorption/ionization (MALDI) mass spectrometer. Peptides were analyzed in positive ion mode in mid mass range (700-3000 Da). The instrument was externally calibrated with Angiotensin II (1046.54), P14R (1533.86) and ACTH (18-39) 2465.20 Da. Precursors were selected based on signal intensity at a mass resolution width of 250 for CID fragmentation using Argon as the collision gas. Database searches were performed in house with Mascot (Matrix Sciences, Ltd.) using the Peptide Mass Fingerprint program for MS data and the MS/MS Ion Search program for CID data. All identifications were confirmed or established with CID (MS/MS) data.\nNCIES0808 cells treated for 3, 6 and 24 hours were subjected to 2-D gel electrophoreses and were analyzed to identify protein-level changes relative to the control media samples. A comparative analysis of spots across multiple duplicated gels was performed, comparing the “control media sample” against all of the treated samples at both the 50 uM and 100 uM doses. The analysis included the identification of spot changes over the time course due to an increase, decrease, or post-translational modification."}
{"substance": "Coenzyme Q10 [CoQ10]", "values": [{"measurement": "Spot 154, Translin-associated factor X: modulation vs control media", "setting": "50 uM Q10", "result": 1}, {"measurement": "Spot 240, Proteasome 26S subunit 13; Endophilin B1: modulation vs control media", "setting": "50 uM Q10", "result": "−1.3"}, {"measurement": "Spot 284, Proteasome 26S subunit: modulation vs control media", "setting": "50 uM Q10", "result": "−1.1"}, {"measurement": "Spot 583, hnRNP C1/C2: modulation vs control media", "setting": "50 uM Q10", "result": 1.4}, {"measurement": "Spot 612, Myosin Regulatory Light Chain: modulation vs control media", "setting": "50 uM Q10", "result": 1.4}, {"measurement": "Spot 667, Dismutase Cu/Zn Superoxide: modulation vs control media", "setting": "50 uM Q10", "result": "−1.1"}, {"measurement": "Spot 685, hnRNP C1/C2: modulation vs control media", "setting": "50 uM Q10", "result": 1.2}, {"measurement": "Spot 746, Actin-like 6A; Eukaryotic Initiation Factor 4All: modulation vs control media", "setting": "50 uM Q10", "result": "−1.3"}, {"measurement": "Spot 938, Nuclear Chloride Channel protein: modulation vs control media", "setting": "50 uM Q10", "result": "−1.2"}, {"measurement": "Spot 940, Ubiquilin 1; Phosphatase 2A: modulation vs control media", "setting": "50 uM Q10", "result": 1}, {"measurement": "Spot 154, Translin-associated factor X: modulation vs control media", "setting": "100 uM Q10", "result": "−1.9"}, {"measurement": "Spot 240, Proteasome 26S subunit 13; Endophilin B1: modulation vs control media", "setting": "100 uM Q10", "result": 1.5}, {"measurement": "Spot 284, Proteasome 26S subunit: modulation vs control media", "setting": "100 uM Q10", "result": "−1.6"}, {"measurement": "Spot 583, hnRNP C1/C2: modulation vs control media", "setting": "100 uM Q10", "result": 1.5}, {"measurement": "Spot 612, Myosin Regulatory Light Chain: modulation vs control media", "setting": "100 uM Q10", "result": 1.4}, {"measurement": "Spot 667, Dismutase Cu/Zn Superoxide: modulation vs control media", "setting": "100 uM Q10", "result": "−1.4"}, {"measurement": "Spot 685, hnRNP C1/C2: modulation vs control media", "setting": "100 uM Q10", "result": 1.2}, {"measurement": "Spot 746, Actin-like 6A; Eukaryotic Initiation Factor 4All: modulation vs control media", "setting": "100 uM Q10", "result": "−1.2"}, {"measurement": "Spot 938, Nuclear Chloride Channel protein: modulation vs control media", "setting": "100 uM Q10", "result": "−1.2"}, {"measurement": "Spot 940, Ubiquilin 1; Phosphatase 2A: modulation vs control media", "setting": "100 uM Q10", "result": 1.3}, {"measurement": "Spot 452, acid phosphatase 1: modulation vs control media", "setting": "50 uM Q10", "result": "−1.3"}, {"measurement": "Spot 477, diazepam binding inhibitor: modulation vs control media", "setting": "50 uM Q10", "result": "−1.4"}, {"measurement": "Spot 530, ribosomal protein SA: modulation vs control media", "setting": "50 uM Q10", "result": "−1.2"}, {"measurement": "Spot 652, proteasome beta 3: modulation vs control media", "setting": "50 uM Q10", "result": "−1.1"}, {"measurement": "Spot 720, dCTP pyrophosphatase 1: modulation vs control media", "setting": "50 uM Q10", "result": "−1.2"}, {"measurement": "Spot 773, proteasome beta 4: modulation vs control media", "setting": "50 uM Q10", "result": "−1.1"}, {"measurement": "Spot 1057, Arsenite translocating ATPase; Spermine synthetase: modulation vs control media", "setting": "50 uM Q10", "result": "−1.1"}, {"measurement": "Spot 452, acid phosphatase 1: modulation vs control media", "setting": "100 uM Q10", "result": "−1.5"}, {"measurement": "Spot 477, diazepam binding inhibitor: modulation vs control media", "setting": "100 uM Q10", "result": "−1.2"}, {"measurement": "Spot 530, ribosomal protein SA: modulation vs control media", "setting": "100 uM Q10", "result": "−1.4"}, {"measurement": "Spot 652, proteasome beta 3: modulation vs control media", "setting": "100 uM Q10", "result": "−1.3"}, {"measurement": "Spot 720, dCTP pyrophosphatase 1: modulation vs control media", "setting": "100 uM Q10", "result": "−1.2"}, {"measurement": "Spot 773, proteasome beta 4: modulation vs control media", "setting": "100 uM Q10", "result": "−1.2"}, {"measurement": "Spot 1057, Arsenite translocating ATPase; Spermine synthetase: modulation vs control media", "setting": "100 uM Q10", "result": "−1.2"}, {"measurement": "Spot 16, alpha 2-HS glycoprotein (Bos Taurus, cow): modulation vs control media", "setting": "24 hours, 50 uM Q10", "result": 1.4}, {"measurement": "Spot 130, ribosomal proten P2; histone H2A: modulation vs control media", "setting": "24 hours, 50 uM Q10", "result": "−1.3"}, {"measurement": "Spot 180, beta actin: modulation vs control media", "setting": "24 hours, 50 uM Q10", "result": 1.3}, {"measurement": "Spot 234, hnRNP C1/C2: modulation vs control media", "setting": "24 hours, 50 uM Q10", "result": "−1.2"}, {"measurement": "Spot 244, heat shock protein 70 kD: modulation vs control media", "setting": "24 hours, 50 uM Q10", "result": 1.1}, {"measurement": "Spot 275, microtubule associated protein: modulation vs control media", "setting": "24 hours, 50 uM Q10", "result": 1.1}, {"measurement": "Spot 311, beta tubulin: modulation vs control media", "setting": "24 hours, 50 uM Q10", "result": 1.7}, {"measurement": "Spot 314, proteasome alpha 3: modulation vs control media", "setting": "24 hours, 50 uM Q10", "result": 1.1}, {"measurement": "Spot 363, ATP dependent helicase II: modulation vs control media", "setting": "24 hours, 50 uM Q10", "result": 1.2}, {"measurement": "Spot 369, eukaryotic translation elongation factor 1 delta: modulation vs control media", "setting": "24 hours, 50 uM Q10", "result": 1.1}]}
